# Patent US9770026B2, “Substituted pyrimidine compound and uses thereof” (Shenyang Sinochem Agrochemicals R&D Co., Ltd., priority 2012, dated 2017)
# Columns and labels:
# Diamond back moth = assay: insecticidal activity against diamond back moth, airbrush spray; assay type: in vivo; conditions: 72 h; for pest or weed control at 10 µg/mL: 10 mg/L; for pest or weed control at 100 µg/mL: 100 mg/L; for pest or weed control at 600 µg/mL: 600 mg/L
# Outline: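 Airbrush leaf-disc spray test: both faces of 2 cm cabbage discs received 0.5 ml of test solution at 0.7 kg/cm^2. Solutions were made in acetone:methanol (1:1) and brought to concentration with 0.1% Tween 80 in water. Ten second-instar larvae per disc, triplicates, were held at 25° C and 60˜70% R.H., with mortality recorded at 72 hrs.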
# armyworm = assay: bioactivity test against armyworm, airbrush spray; assay type: in vivo; conditions: 72 h, 600 mg/L; read-out: Insecticidal activity against armyworm (%)
# cucumber downy mildew = assay: protectant activity in vivo against cucumber downy mildew; conditions: Cucumis sativus, 168 h, protectant activity
# rice blast = assay: microbe, parasite or virus in culture; assay type: cell-based; conditions: Pyricularia oryzae, read-out: inhibition rate against rice blast, 25 ppm, in vitro
# wheat powdery mildew = assay: protectant activity in vivo against wheat powdery mildew; conditions: Triticum aestivum, 168 h, protectant activity
# [1] = system: Green peach aphids (Myzus Persicae Sulzer); assay: bioactivity test against green peach aphid, airbrush foliar spray; assay type: in vivo; conditions: Myzus persicae, foliar, 48 h, contrastive test, read-out: Insecticidal activity against peach aphid (%); for pest or weed control at 5 µg/mL: 5 mg/L; for pest or weed control at 10 µg/mL: 10 mg/L; for pest or weed control at 100 µg/mL: 100 mg/L; for pest or weed control at 600 µg/mL: 600 mg/L
# Outline: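 Death rate was scored at 48 hrs, held at 25±1 C and 60±5% RH, following airbrush foliar spray (0.5 mL, 10 psi) onto cabbage leaf discs bearing about 15-30 aphids. Test solutions: compound dissolved in 1:1 acetone:methanol, brought to concentration with 0.1% tween 80 water.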
# carmine spider mite = assay: bioactivity test against carmine spider mite, airbrush spray; assay type: in vivo; conditions: Tetranychus cinnabarinus, 72 h, contrastive test, read-out: Insecticidal activity against carmine spider mite (% ); for pest or weed control at 10 µg/mL: 10 mg/L; for pest or weed control at 100 µg/mL: 100 mg/L; for pest or weed control at 600 µg/mL: 600 mg/L
# Outline: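 Broadbean seedlings infested with adult mites were sprayed with compound (acetone/methanol stock diluted in 0.1% Tween 80 water) by airbrush at 0.7 kg/cm^2, 0.5 ml. Three replicates were run. Mortality was scored after 72 hrs.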
# corn rust = assay: protectant activity in vivo against corn rust; conditions: Zea mays, 168 h, protectant activity; for pest or weed control at 400 µg/mL: read-out: control effect against corn rust (%), 400 mg/L
SMILES,pest or weed control at 10 µg/mL (Diamond back moth) [%],pest or weed control at 100 µg/mL (Diamond back moth) [%],pest or weed control at 600 µg/mL (Diamond back moth) [%],pest or weed control at 600 µg/mL (armyworm) [%],inhibition at 25 ppm (rice blast) [%],pest or weed control at 5 µg/mL [1] [%],pest or weed control at 10 µg/mL [1] [%],pest or weed control at 100 µg/mL [1] [%],pest or weed control at 600 µg/mL [1] [%],pest or weed control at 10 µg/mL (carmine spider mite) [%],pest or weed control at 100 µg/mL (carmine spider mite) [%],pest or weed control at 600 µg/mL (carmine spider mite) [%],pest or weed control at 400 µg/mL (corn rust) [%],also measured
"FC(F)(F)c1ccc(Oc2ccc(CCNc3ncnc4ccccc34)cc2)cc1 [CK11, reference compound]",5,55,86,29,0,25,85,98,100,,,,,"pest or weed control at 25 µg/mL (cucumber downy mildew; read-out: control effect against cucumber downy mildew (%), 25 mg/L): 0%; pest or weed control at 50 µg/mL (cucumber downy mildew; read-out: control effect against cucumber downy mildew (%), 50 mg/L): 0%; pest or weed control at 100 µg/mL (cucumber downy mildew; read-out: control effect against cucumber downy mildew (%), 100 mg/L): 30%; pest or weed control at 400 µg/mL (cucumber downy mildew; read-out: control effect against cucumber downy mildew (%), 400 mg/L): 85%; pest or weed control at 6.25 µg/mL (wheat powdery mildew; read-out: control effect against wheat powdery mildew (%), 6.25 mg/L): 0%; pest or weed control at 25 µg/mL (wheat powdery mildew; read-out: control effect against wheat powdery mildew (%), 25 mg/L): 40%; pest or weed control at 100 µg/mL (wheat powdery mildew; read-out: control effect against wheat powdery mildew (%), 100 mg/L): 60%; pest or weed control at 400 µg/mL (wheat powdery mildew; read-out: control effect against wheat powdery mildew (%), 400 mg/L): 100%; pest or weed control at 2.5 µg/mL ([1]; 2.5 mg/L): 0%"
"CCc1ncnc(NCc2ccc(Oc3ncc(C(F)(F)F)cc3Cl)cc2)c1Cl [CK38, reference compound]",5,21,100,0,0,,0,24,100,14,37,99,0,
"CCc1ncnc(NC(C)c2ccc(Oc3ncc(C(F)(F)F)cc3Cl)cc2)c1Cl (stereo not drawn) [CK39, reference compound]",0,20,80,0,0,0,2,86,100,16,37,100,100,"pest or weed control at 0.4 µg/mL (corn rust; read-out: control effect against corn rust (%), 0.4 mg/L): 0%; pest or weed control at 1.6 µg/mL (corn rust; read-out: control effect against corn rust (%), 1.6 mg/L): 10%; pest or weed control at 6.25 µg/mL (corn rust; read-out: control effect against corn rust (%), 6.25 mg/L): 50%; pest or weed control at 25 µg/mL (corn rust; read-out: control effect against corn rust (%), 25 mg/L): 80%; pest or weed control at 100 µg/mL (corn rust; read-out: control effect against corn rust (%), 100 mg/L): 100%"
